The values below come from patent US7592160B2, “Processes for producing isomaltose and isomaltitol and use thereof” (Kabushiki Kaisha Hayashibara Seibutsu Kagaku Kenkyujo, priority 2001, dated 2009).

For test [1], the system named is α-isomaltosylglucosaccharide-forming enzyme. Put plainly: Action on saccharides as substrates (TLC), enzyme of C9 strain. As to conditions: two units/g substrate, substrate 2% (w/v), 30° C., pH 6.0, 24 hours. The test is classed as biochemical, Bacillus globisporus C9 strain. Also noted: key: −: it showed no change; +: it showed a slight reduction of the color spot of the substrate and the formation of other reaction product; ++: it showed a high reduction of the color spot of the substrate and the formation of other reaction product; +++: it showed a substantial disappearance of the substrate spot and the formation of other reaction product. The source says:
(§1) To examine the saccharides in the supernatant, they were separated by developing twice on silica gel thin-layer chromatography (abbreviated as “TLC” hereinafter) using, as a developer, a mixture solution of n-butanol, pyridine, and water (=6:4:1 by volume), and, as a thin-layer plate, “[…]™ 60”, an aluminum plate (20×20 cm) for TLC commercialized by Merck & Co., Inc., Rahway, USA. The coloration of the separated total sugars by the sulfuric acid-methanol method and that of the reducing saccharides by the diphenylamine-aniline method detected a non-reducing saccharide positive at an Rf value of about 0.31 on the former detection method but negative on the latter detection method.
(§2) It was tested whether any saccharides can be used as substrates for α-isomaltosylglucosaccharide-forming enzyme. For the purpose, a solution of maltose, maltotriose, maltotetraose, maltopentaose, maltohexaose, maltoheptaose, isomaltose, isomaltotriose, panose, isopanose, α,α-trehalose, kojibiose, nigerose, neotrehalose, cellobiose, gentibiose, maltitol, maltotriitol, lactose, sucrose, erlose, selaginose, maltosyl glucoside, or isomaltosyl glucoside was prepared.
(§3) To each of the above solutions was added two units/g substrate of a purified specimen of α-isomaltosylglucosaccharide-forming enzyme from either Bacillus globisporus C9 strain obtained by the method in Experiment 4-2, Bacillus globisporus C11 strain obtained by the method in Experiment 7-2, Bacillus globisporus N75 strain obtained by the method in Experiment 11-2, or Arthrobacter globiformis A19 strain obtained by the method in Experiment 15-2, and the resulting each solution was adjusted to give a substrate concentration of 2% (w/v) and incubated at 30° C. and pH 6.0 for 24 hours, except for using pH 8.4 for the enzyme from Arthrobacter globiformis A19 strain. The enzyme solutions before and after the enzymatic reactions were respectively analyzed on TLC disclosed in Experiment 1 to confirm whether the enzymes acted on these substrates.

Test [2] has the same test system. Nature of the test: Transfer-acceptor specificity, enzyme of A19 strain. The test is classed as biochemical, Arthrobacter globiformis A19 strain. Particulars: acceptor 1.6%, PINE-DEX #100 donor 4%, one unit/g donor, 30° C., pH 8.4, 24 hours. In short, it runs like this:
(§4)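 Acceptor saccharides at 1.6% with partial starch hydrolyzate donor at 4% and purified enzyme at 1 unit/g donor, d.s.b., 30 °C, 24 h, pH 6.0 (pH 8.4 for A19 enzyme). Transfer products of mono- and disaccharide acceptors analysed by GLC, of trisaccharide acceptors by HPLC with refractometer detection.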

Test [3] has the same test system. Put plainly: Action on saccharides as substrates (TLC), enzyme of N75 strain. The test is classed as biochemical, Bacillus globisporus N75 strain. Also noted: key: −: it showed no change; +: it showed a slight reduction of the color spot of the substrate and the formation of other reaction product; ++: it showed a high reduction of the color spot of the substrate and the formation of other reaction product; +++: it showed a substantial disappearance of the substrate spot and the formation of other reaction product. Particulars: two units/g substrate, substrate 2% (w/v), 30° C., pH 6.0, 24 hours.
Excerpt: as §1, §2, §3

Test [4] shares this test system. Nature of the test: Action on saccharides as substrates (TLC), enzyme of C11 strain. The test is classed as biochemical, Bacillus globisporus C11 strain. Also noted: key: −: it showed no change; +: it showed a slight reduction of the color spot of the substrate and the formation of other reaction product; ++: it showed a high reduction of the color spot of the substrate and the formation of other reaction product; +++: it showed a substantial disappearance of the substrate spot and the formation of other reaction product. Particulars: two units/g substrate, substrate 2% (w/v), 30° C., pH 6.0, 24 hours.
Excerpt: as §1, §2, §3

The test system is the same in test [5]. Nature of the test: Transfer-acceptor specificity, enzyme of C11 strain. As to conditions: acceptor 1.6%, PINE-DEX #100 donor 4%, one unit/g donor, 30° C., pH 6.0, 24 hours. The class given is biochemical, Bacillus globisporus C11 strain. The method in brief:
as §4

For test [6] the test system is unchanged. Put plainly: Transfer-acceptor specificity, enzyme of N75 strain. The class given is biochemical, Bacillus globisporus N75 strain. As to conditions: acceptor 1.6%, PINE-DEX #100 donor 4%, one unit/g donor, 30° C., pH 6.0, 24 hours. The method in brief: as §4
Test [7] shares this test system. Put plainly: Action on saccharides as substrates (TLC), enzyme of A19 strain. The test is classed as biochemical, Arthrobacter globiformis A19 strain. On the set-up: key: −: it showed no change; +: it showed a slight reduction of the color spot of the substrate and the formation of other reaction product; ++: it showed a high reduction of the color spot of the substrate and the formation of other reaction product; +++: it showed a substantial disappearance of the substrate spot and the formation of other reaction product. As to conditions: two units/g substrate, substrate 2% (w/v), 30° C., pH 8.4, 24 hours.
Excerpt: as §1, §2, §3

For test [8] the test system is unchanged. Put plainly: Transfer-acceptor specificity, enzyme of C9 strain. The class given is biochemical, Bacillus globisporus C9 strain. As to conditions: acceptor 1.6%, PINE-DEX #100 donor 4%, one unit/g donor, 30° C., pH 6.0, 24 hours. In short, it runs like this: as §4

As to `OC[C@H]1O[C@@H](O[C@H]2[C@H](O)[C@@H](O)C(O)O[C@@H]2CO)[C@H](O)[C@@H](O)[C@H]1O` (some centres unmarked) [Lactose, lactose], in test [1], the “Enzymatic action, Enzyme of C9 strain” value is recorded as “−”. The “Product of transferring reaction, Enzyme of A19 strain” value (“Product … of A19 strain” for short) in test [2] is “++ (a saccharide-transferred product was detected in an amount over ten percent through transfer reaction to acceptor)”. The “Enzymatic action, Enzyme of N75 strain” value in test [3] is recorded as “−”. For the same compound, the “Enzymatic action, Enzyme of C11 strain” value in test [4] is reported as “−”. The “Product of transferring reaction, Enzyme of C11 strain” value (from here on “Product … of C11 strain”) in test [5] is on record as “++ (a saccharide-transferred product was detected in an amount over ten percent through transfer reaction to acceptor)”. For the same compound, the “Product of transferring reaction, Enzyme of N75 strain” value (from here on “Product … of N75 strain”) in test [6] is “++ (a saccharide-transferred product was detected in an amount over ten percent through transfer reaction to acceptor)”. The “Enzymatic action, Enzyme of A19 strain” value in test [7] was “−”. In addition, the “Product of transferring reaction, Enzyme of C9 strain” value (from here on “Product … of C9 strain”) in test [8] is recorded as “++ (a saccharide-transferred product was detected in an amount over ten percent through transfer reaction to acceptor)”.
On to `OC[C@@H](O)[C@@H](O[C@H]1O[C@H](CO)[C@@H](O)[C@H](O)[C@H]1O)[C@H](O)[C@@H](O)CO` [Maltitol, maltitol], for which the “Enzymatic action, Enzyme of C9 strain” value in test [1] is given as “−”. Also, the “Product … of A19 strain” value in test [2] is given as “++ (a saccharide-transferred product was detected in an amount over ten percent through transfer reaction to acceptor)”. In test [3], the “Enzymatic action, Enzyme of N75 strain” value is reported as “−”. In test [4], the “Enzymatic action, Enzyme of C11 strain” value is “−”. The “Product … of C11 strain” value in test [5] is given as “++ (a saccharide-transferred product was detected in an amount over ten percent through transfer reaction to acceptor)”. Further, in test [6], the “Product … of N75 strain” value is reported as “++ (a saccharide-transferred product was detected in an amount over ten percent through transfer reaction to acceptor)”. For the same compound, the “Enzymatic action, Enzyme of A19 strain” value in test [7] is “−”. For the same compound, in test [8], the “Product … of C9 strain” value was “++ (a saccharide-transferred product was detected in an amount over ten percent through transfer reaction to acceptor)”.
For the compound `OC[C@H]1O[C@@](CO)(O[C@H]2O[C@H](CO)[C@@H](O)[C@H](O)[C@H]2O)[C@@H](O)[C@@H]1O` [Sucrose, sucrose], the “Enzymatic action, Enzyme of C9 strain” value in test [1] was “−”. The “Product … of A19 strain” value in test [2] is listed as “++ (a saccharide-transferred product was detected in an amount over ten percent through transfer reaction to acceptor)”. Besides, the “Enzymatic action, Enzyme of N75 strain” value in test [3] is given as “−”. For the same compound, the “Enzymatic action, Enzyme of C11 strain” value in test [4] is listed as “−”. For the same compound, the “Product … of C11 strain” value in test [5] is “++ (a saccharide-transferred product was detected in an amount over ten percent through transfer reaction to acceptor)”. In addition, in test [6], the “Product … of N75 strain” value is recorded as “++ (a saccharide-transferred product was detected in an amount over ten percent through transfer reaction to acceptor)”. Further, the “Enzymatic action, Enzyme of A19 strain” value in test [7] is recorded as “−”. Moreover, the “Product … of C9 strain” value in test [8] was “++ (a saccharide-transferred product was detected in an amount over ten percent through transfer reaction to acceptor)”.
On to `OC[C@H]1O[C@H](O[C@H]2O[C@H](CO)[C@@H](O)[C@H](O)[C@H]2O)[C@H](O)[C@@H](O)[C@@H]1O` [Trehalose, α,α-trehalose], for which the “Enzymatic action, Enzyme of C9 strain” value in test [1] is “−”. Also, the “Product … of A19 strain” value in test [2] is recorded as “++ (a saccharide-transferred product was detected in an amount over ten percent through transfer reaction to acceptor)”. For the same compound, the “Enzymatic action, Enzyme of N75 strain” value in test [3] is “−”. Besides, in test [4], the “Enzymatic action, Enzyme of C11 strain” value is “−”. Also, the “Product … of C11 strain” value in test [5] was “++ (a saccharide-transferred product was detected in an amount over ten percent through transfer reaction to acceptor)”. Also, the “Product … of N75 strain” value in test [6] is “++ (a saccharide-transferred product was detected in an amount over ten percent through transfer reaction to acceptor)”. The “Enzymatic action, Enzyme of A19 strain” value in test [7] was “−”. In test [8], the “Product … of C9 strain” value is on record as “++ (a saccharide-transferred product was detected in an amount over ten percent through transfer reaction to acceptor)”.
